Laboratory results taken from PubChem BioAssay AID720570 (Broad Institute, 2013).
The source made the active and inactive calls.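 Rule for the calls: active = cell-killing curve crosses a set limit at a concentration no more than twice the top valid dose; inconclusive = flat curve with a 30 to 70% loss, or a poor fit; inactive = signal rising instead of falling, and the rest.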

Assay: TC71 Ewing sarcoma cell killing, confirmation, luminescence, cherry-picked samples, retest (AID 720570)
Details: TC71 Ewing sarcoma viability, CellTiter-Glo ATP, 72 h

Structure (SMILES) | activity change, negative = cytotoxicity (at 26 µM (top of the series)) | activity change, negative = cytotoxicity (at 23.5 µM (top of the series))
CC(C)c1oc(=O)cc2c1[C@@H](O)[C@H]1OC(=O)[C@@]3(C)CC[C@@H](O)[C@@]2(C)C13 (stereo not given in full) | -18.6% (inactive) | 
CN(C)c1ccc(/C=N/Nc2nc3ccccc3o2)cc1 | 1.68% (inactive) | 
Cc1ccc(C(=O)CN2C(=O)c3ccccc3S2(=O)=O)cc1 | 1.85% (inactive) | 
O=C(O)c1cccc(N/N=C/c2cccs2)c1 | 8.12% (inactive) | 
COC(=O)c1c(C)[nH]c(/C=N/Nc2ccccc2)c1C | 7.36% (inactive) | 
CN(C)C(=S)N=Nc1[nH]c2ccccc2c1O | 16.9% (inactive) | 
CCc1ccc(/C=C2\SC(=S)N(CCCC(=O)NC3=NCCS3)C2=O)cc1 | 13.5% (inactive) | 
COCc1cc(C)nc2sc(C(=O)NCCO)c(-n3cccc3)c12 | 3.9% (inactive) | 
Cc1ccc(S(=O)(=O)N(C)C[C@H]2Oc3c(cccc3N(C)C)C(=O)N([C@@H](C)CO)C[C@@H]2C)cc1 | -6.3% (inactive) | 
COc1ccc(Cl)cc1S(=O)(=O)Nc1ccc2c(c1)n(C)c(=O)n2C | -4.55% (inactive) | 
CCN(CC)c1ccc(C2NC(=O)c3ccccc3N2)cc1 (stereo not given) | -26.2% (inactive) | 
CCNC(=O)[C@@H]1[C@@H](CO)[C@@H]2Cn3c(ccc(C4=CCCCC4)c3=O)[C@H]1N2CC | 8.36% (inactive) | 
CC1=NN(c2ccccc2)C(=O)/C1=C\C=C\c1ccccc1 | 22.9% (inactive) | 
N#C[C@H]1N[C@H](CO)[C@H]1c1ccc(C#Cc2ccccc2F)cc1 |  | -18.8% (inactive)
COC(=O)Cc1[nH]n(-c2nc3ccccc3s2)c(=O)c1C(C)=Nc1ccc(C)cc1 | -7.01% (inactive) | 
OCCN1CCN(C(=S)c2ccc(-c3ccccc3)cc2)CC1 | -0.296% (inactive) | 
CN(C(=O)COC(=O)c1cc(-c2ccccc2Cl)nc2ccccc12)C1CCS(=O)(=O)C1 (stereo not given) | 5.31% (inactive) | 
Nc1ccc(-c2cc3ccccc3oc2=O)cc1 | -3.32% (inactive) | 
C=C(C(=O)c1ccccc1)C(C(=C)C(=O)c1ccccc1)c1ccc(OC)cc1 | 10.8% (inactive) | 
O=C(CN1C(=O)C(=O)c2ccccc21)c1ccc(Cl)cc1 | -1.64% (inactive) | 

Structure (SMILES) | activity change, negative = cytotoxicity (at 26 µM (top of the series)) | activity change, negative = cytotoxicity (at 23.5 µM (top of the series))
C[C@@H]1CN([C@H](C)CO)C(=O)c2cc(C#CCc3ccccc3)cnc2O[C@@H]1CN(C)Cc1cccc(F)c1 | -4.64% (inactive) | 
Cc1ccccc1N=CC1=C(O)c2ccccc2C1=O | 20.2% (inactive) | 
Cc1cc(C)cc(OCC(=O)OCC(=O)Nc2cc(S(=O)(=O)N3CCOCC3)ccc2C)c1 | 5.46% (inactive) | 
COc1ccccc1-c1cn(CC[C@H]2CC[C@@H](NC(=O)C3CCCC3)[C@@H](CO)O2)nn1 | 12.9% (inactive) | 
COc1ccc(C(=O)CN2C(=O)c3ccccc3S2(=O)=O)cc1 | 19.9% (inactive) | 
COCCOC(=O)N1C(=O)[C@@]2(c3cc(C#CCC(C(=O)OC)C(=O)OC)ccc31)[C@H](c1ccccc1OCCO)N1[C@H](c3ccccc3)[C@H](c3ccccc3)OC(=O)[C@H]1[C@@H]2C(=O)N1CCN(c2ncccn2)CC1 | 16.1% (inactive) | 
Cc1ccc(/C=C2\SC(=S)N(CCC(=O)NNC(=O)c3ccccc3O)C2=O)cc1 | -7.03% (inactive) | 
C[C@@H]1CCCCO[C@@H](CN(C)C(=O)Cc2ccccc2)[C@@H](C)CN([C@@H](C)CO)C(=O)c2cc(NS(=O)(=O)c3ccc(F)cc3)ccc2O1 | -0.12% (inactive) | 
CCOc1cc2[nH]c(=S)n(Cc3ccc(C(=O)N4CCN(C)CC4)cc3)c(=O)c2cc1OCC | 11.2% (inactive) | 
COc1cccc(S(=O)(=O)N(C)C[C@H]2OCc3cnnn3CCCC(=O)N([C@@H](C)CO)C[C@H]2C)c1 | -0.98% (inactive) | 
CCCc1nc2ccc(NC(=O)c3cccs3)cc2c(=O)n1Cc1ccccc1Cl | 2.97% (inactive) | 
Cc1cccc(/C=N/Nc2ccc3ccccc3n2)c1 | -16.4% (inactive) | 
CC(=O)Nc1ccc(OCC(=O)N(CC(C)C)C2CCS(=O)(=O)C2)cc1 (stereo not given) | 11.9% (inactive) | 
CCCCNC1=CC(=O)C(=O)c2ccccc21 | 3.77% (inactive) | 
C/C(=N\OCc1cccc(C(=O)O)c1)c1ccc(Cl)cc1 | -12.2% (inactive) | 
Cc1ccc(Cc2c(-c3ccco3)nc3c(C)cc(Br)cn23)cc1 | -21.5% (inactive) | 
CCOC(=O)c1c(-c2ccc(C)cc2)csc1NC(=O)CCN1CCOCC1 | 13.3% (inactive) | 
COc1ccc(C(=O)OCC(=O)Nc2ccc(Cl)c(C(F)(F)F)c2)c(OC)c1OC | 3.2% (inactive) | 
O=C(Cc1nn[nH]n1)c1ccccc1O | 13.8% (inactive) | 
COc1ccc(/C=C2\SC(=O)N(CCCC(=O)Nc3ccc(C(=O)O)cc3)C2=O)cc1 | 21.2% (inactive) | 
